Kd data for one compound are collected here from PMC12383317, “Ajuforrestin A Inhibits Tumor Proliferation and Migration by Targeting the STAT3/FAK Signaling Pathways and VEGFR-2” (Biology, 2025).

In general, Kd refers to a measure of binding affinity in units of concentration.

The target in this assay is T1, VEGFR-2 (Homo sapiens, UniProt P35968).
T1 construct: gene KDR
Description: SPR with VEGFR-2 immobilized on sensor chip, compound […]. The class given is binding.

T1 sequence (P35968 20-1356): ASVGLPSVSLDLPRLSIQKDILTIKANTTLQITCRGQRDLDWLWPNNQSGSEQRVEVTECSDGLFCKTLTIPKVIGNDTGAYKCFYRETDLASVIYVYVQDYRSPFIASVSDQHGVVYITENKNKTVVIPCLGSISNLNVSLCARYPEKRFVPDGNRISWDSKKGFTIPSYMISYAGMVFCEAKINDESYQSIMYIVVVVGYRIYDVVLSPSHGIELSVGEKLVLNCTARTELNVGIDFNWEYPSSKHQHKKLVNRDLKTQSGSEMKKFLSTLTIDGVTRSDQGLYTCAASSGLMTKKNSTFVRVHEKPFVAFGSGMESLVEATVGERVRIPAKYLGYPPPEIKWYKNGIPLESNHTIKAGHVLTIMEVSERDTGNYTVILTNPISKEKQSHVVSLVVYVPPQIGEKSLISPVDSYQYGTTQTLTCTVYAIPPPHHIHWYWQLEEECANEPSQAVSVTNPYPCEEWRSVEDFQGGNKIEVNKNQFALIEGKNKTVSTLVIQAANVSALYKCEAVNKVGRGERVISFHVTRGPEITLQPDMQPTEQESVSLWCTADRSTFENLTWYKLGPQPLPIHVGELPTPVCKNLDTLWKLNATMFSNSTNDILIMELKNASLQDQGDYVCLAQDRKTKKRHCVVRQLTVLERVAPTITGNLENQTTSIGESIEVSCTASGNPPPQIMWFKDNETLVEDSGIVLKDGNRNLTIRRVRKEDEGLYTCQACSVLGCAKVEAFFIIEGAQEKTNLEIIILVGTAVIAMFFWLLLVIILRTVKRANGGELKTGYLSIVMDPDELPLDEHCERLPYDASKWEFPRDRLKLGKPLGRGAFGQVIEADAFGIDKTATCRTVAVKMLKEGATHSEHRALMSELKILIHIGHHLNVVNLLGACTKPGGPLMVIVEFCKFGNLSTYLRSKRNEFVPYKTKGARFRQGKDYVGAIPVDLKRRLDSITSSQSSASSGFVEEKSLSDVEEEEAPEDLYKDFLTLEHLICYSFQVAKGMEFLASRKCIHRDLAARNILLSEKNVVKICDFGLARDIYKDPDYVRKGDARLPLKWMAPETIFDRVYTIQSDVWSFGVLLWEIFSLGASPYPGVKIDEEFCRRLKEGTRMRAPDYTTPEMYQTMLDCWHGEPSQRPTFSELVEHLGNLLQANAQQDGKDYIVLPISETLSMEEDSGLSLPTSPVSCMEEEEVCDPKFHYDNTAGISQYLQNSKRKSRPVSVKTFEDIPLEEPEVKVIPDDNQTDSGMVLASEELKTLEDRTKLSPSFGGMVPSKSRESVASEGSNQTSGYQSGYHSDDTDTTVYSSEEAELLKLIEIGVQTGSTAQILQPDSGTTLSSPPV

Take `CC1=C(C)C2=CC(=O)c3c(c(O)c4occ(C)c4c3O)C2(C)CC1` (stereo not shown) [ajuforrestin A]: the affinity, expressed as Kd, was 45 µM.
